# Test results as given in patent publication US20260297081A1, “COMPOUNDS AND METHODS OF TREATING CANCERS” (Cullgen Inc., priority 2023, published 2026).
# Like-named read-outs stand apart in the source and are kept apart here.
# System: MCF7 cells
# Assay: Anti-proliferation (viability) of MCF7 cells (Table 7, FIG. 2B)
# Format: cell-based
# Settings: 3-6 days, 10-point serial dilution, read-out: GI IC50 in MCF-7
SMILES,"IC50 (Homo sapiens, MCF7, MCF7 cells) [µM]",IC50 (MCF7 cells) [µM]
"CNc1ccc(C(=O)Nc2ccc(N(C)C)nn2)c(NC2CC3(C2)CN(C(=O)C2CC4(CCN(c5ccc(Nc6ncc7c(C)c(C(C)=O)c(=O)n(C8CCCC8)c7n6)nc5)CC4)C2)C3)n1 (stereo not drawn) [CPD-325, 2-((2-(7-(6-((6-acetyl-8-cyclopentyl-5-methyl-7-oxo-7,8-dihydropyrido[2,3-d]pyrimidin-2-yl)amino)pyridin-3-yl)-7-azaspiro[3.5]nonane-2-carbonyl)-2-azaspiro[3.3]heptan-6-yl)amino)-N-(6-(dimethylamino)pyridazin-3-yl)-6-(methylamino)nicotinamide]",> 0.1,
"CNc1ccc(C(=O)Nc2ccc(N(C)C)nn2)c(NC2CCN(C(=O)C3CC4(CCN(c5ccc(Nc6ncc7c(C)c(C(C)=O)c(=O)n(C8CCCC8)c7n6)nc5)CC4)C3)CC2)n1 [CPD-329, 2-((1-(7-(6-((6-acetyl-8-cyclopentyl-5-methyl-7-oxo-7,8-dihydropyrido[2,3-d]pyrimidin-2-yl)amino)pyridin-3-yl)-7-azaspiro[3.5]nonane-2-carbonyl)piperidin-4-yl)amino)-N-(6-(dimethylamino)pyridazin-3-yl)-6-(methylamino)nicotinamide]",> 0.1,
"CNc1ccc(C(=O)Nc2ccc(N(C)C)nn2)c(NC2CC(C(=O)N3CC4(CCN(c5ccc(Nc6ncc7c(C)c(C(C)=O)c(=O)n(C8CCCC8)c7n6)nc5)CC4)C3)C2)n1 (stereo not drawn) [CPD-331, 2-((3-(7-(6-((6-acetyl-8-cyclopentyl-5-methyl-7-oxo-7,8-dihydropyrido[2,3-d]pyrimidin-2-yl)amino)pyridin-3-yl)-2,7-diazaspiro[3.5]nonane-2-carbonyl)cyclobutyl)amino)-N-(6-(dimethylamino)pyridazin-3-yl)-6-(methylamino)nicotinamide]",> 0.1,
"CNc1ccc(C(=O)Nc2ccc(N(C)C)nn2)c(NC2CC(C(=O)N3CC(N4CCN(c5ccc(Nc6ncc7c(C)c(C(C)=O)c(=O)n(C8CCCC8)c7n6)nc5)CC4)C3)C2)n1 (stereo not drawn) [CPD-332, 2-((3-(3-(4-(6-((6-acetyl-8-cyclopentyl-5-methyl-7-oxo-7,8-dihydropyrido[2,3-d]pyrimidin-2-yl)amino)pyridin-3-yl)piperazin-1-yl)azetidine-1-carbonyl)cyclobutyl)amino)-N-(6-(dimethylamino)pyridazin-3-yl)-6-(methylamino)nicotinamide]",> 0.1,
CNc1ccc(C(=O)Nc2ccc(N(C)C)nn2)c(NC2CC(C(=O)N3CCC(N4CCN(c5ccc(Nc6ncc7c(C)c(C(C)=O)c(=O)n(C8CCCC8)c7n6)nc5)CC4)CC3)C2)n1 (stereo not drawn) [CPD-334],,> 0.1
"CNc1ccc(C(=O)Nc2ccc(N(C)C)nn2)c(NC2CC(n3cc(CN4CCN(c5ccc(Nc6ncc7c(C)c(C(C)=O)c(=O)n(C8CCCC8)c7n6)nc5)CC4)nn3)C2)n1 (stereo not drawn) [CPD-335, 2-((3-(4-((4-(6-((6-acetyl-8-cyclopentyl-5-methyl-7-oxo-7,8-dihydropyrido[2,3-d]pyrimidin-2-yl)amino)pyridin-3-yl)piperazin-1-yl)methyl)-1H-1,2,3-triazol-1-yl)cyclobutyl)amino)-N-(6-(dimethylamino)pyridazin-3-yl)-6-(methylamino)nicotinamide]",> 0.1,
CNc1ccc(C(=O)Nc2ccc(N(C)C)nn2)c(N[C@H]2C[C@@H](CN3CCC(CN4CCN(c5ccc(Nc6ncc7c(C)c(C(C)=O)c(=O)n(C8CCCC8)c7n6)nc5)CC4)C3)C2)n1 (stereo partly drawn) [CPD-336],> 0.1,
"CNc1ccc(C(=O)Nc2ccc(N(C)C)nn2)c(NC2CC(C(=O)N3CCC4(CC3)CCN(c3ccc(Nc5ncc6c(C)c(C(C)=O)c(=O)n(C7CCCC7)c6n5)nc3)CC4)C2)n1 (stereo not drawn) [CPD-337, 2-((3-(9-(6-((6-acetyl-8-cyclopentyl-5-methyl-7-oxo-7,8-dihydropyrido[2,3-d]pyrimidin-2-yl)amino)pyridin-3-yl)-3,9-diazaspiro[5.5]undecane-3-carbonyl)cyclobutyl)amino)-N-(6-(dimethylamino)pyridazin-3-yl)-6-(methylamino)nicotinamide]",> 0.1,
"[2H]C([2H])([2H])Nc1ccc(C(=O)Nc2ccc(N(C)C)nn2)c(NC2CC(CNC(=O)CN3CCN(c4ccc(Nc5ncc6c(C)c(C(C)=O)c(=O)n(C7CCCC7)c6n5)nc4)CC3)C2)n1 (stereo not drawn) [CPD-343, 2-((3-((2-(4-(6-((6-acetyl-8-cyclopentyl-5-methyl-7-oxo-7,8-dihydropyrido[2,3-d]pyrimidin-2-yl)amino)pyridin-3-yl)piperazin-1-yl)acetamido)methyl)cyclobutyl)amino)-N-(6-(dimethylamino)pyridazin-3-yl)-6-((methyl-d3)amino)nicotinamide]",0.05 to 0.1,
"CNc1ccc(C(=O)Nc2ccc(N(C)C)nn2)c(NCC2(F)CN(C(=O)CN3CCN(c4ccc(Nc5ncc6c(C)c(C(C)=O)c(=O)n(C7CCCC7)c6n5)nc4)CC3)C2)n1 [CPD-344, 2-(((1-(2-(4-(6-((6-acetyl-8-cyclopentyl-5-methyl-7-oxo-7,8-dihydropyrido[2,3-d]pyrimidin-2-yl)amino)pyridin-3-yl)piperazin-1-yl)acetyl)-3-fluoroazetidin-3-yl)methyl)amino)-N-(6-(dimethylamino)pyridazin-3-yl)-6-(methylamino)nicotinamide]",> 0.1,
"CNc1ccc(C(=O)Nc2ccc(N(C)C)nn2)c(NCC23CC(NC(=O)CN4CCN(c5ccc(Nc6ncc7c(C)c(C(C)=O)c(=O)n(C8CCCC8)c7n6)nc5)CC4)(C2)C3)n1 [CPD-345, 2-(((3-(2-(4-(6-((6-acetyl-8-cyclopentyl-5-methyl-7-oxo-7,8-dihydropyrido[2,3-d]pyrimidin-2-yl)amino)pyridin-3-yl)piperazin-1-yl)acetamido)bicyclo[1.1.1]pentan-1-yl)methyl)amino)-N-(6-(dimethylamino)pyridazin-3-yl)-6-(methylamino)nicotinamide]",> 0.1,
"CNc1ccc(C(=O)Nc2ccc(N(C)C)nn2)c(NC23CC(NC(=O)CN4CCN(c5ccc(Nc6ncc7c(C)c(C(C)=O)c(=O)n(C8CCCC8)c7n6)nc5)CC4)(C2)C3)n1 [CPD-346, 2-((3-(2-(4-(6-((6-acetyl-8-cyclopentyl-5-methyl-7-oxo-7,8-dihydropyrido[2,3-d]pyrimidin-2-yl)amino)pyridin-3-yl)piperazin-1-yl)acetamido)bicyclo[1.1.1]pentan-1-yl)amino)-N-(6-(dimethylamino)pyridazin-3-yl)-6-(methylamino)nicotinamide]",> 0.1,

# More lines, main results first:
"IC50 (Homo sapiens, MCF7, MCF7 cells) [µM]",SMILES,IC50 (MCF7 cells) [µM]
> 0.1,"CNc1ccc(C(=O)Nc2cn(C)c(C3CC3)n2)c(NC2CC3(C2)CN(C(=O)C2CC24CCN(c2ccc(Nc5ncc6c(C)c(C(C)=O)c(=O)n(C7CCCC7)c6n5)nc2)CC4)C3)n1 (stereo not drawn) [CPD-320, 2-((2-(6-(6-((6-acetyl-8-cyclopentyl-5-methyl-7-oxo-7,8-dihydropyrido[2,3-d]pyrimidin-2-yl)amino)pyridin-3-yl)-6-azaspiro[2.5]octane-1-carbonyl)-2-azaspiro[3.3]heptan-6-yl)amino)-N-(2-cyclopropyl-1-methyl-1H-imidazol-4-yl)-6-(methylamino)nicotinamide]",
> 0.1,"CNc1ccc(C(=O)Nc2cn(C)c(C3CC3)n2)c(NC2CC3(C2)CN(C(=O)C2CC4(CCN(c5ccc(Nc6ncc7c(C)c(C(C)=O)c(=O)n(C8CCCC8)c7n6)nc5)CC4)C2)C3)n1 (stereo not drawn) [CPD-321, 2-((2-(7-(6-((6-acetyl-8-cyclopentyl-5-methyl-7-oxo-7,8-dihydropyrido[2,3-d]pyrimidin-2-yl)amino)pyridin-3-yl)-7-azaspiro[3.5]nonane-2-carbonyl)-2-azaspiro[3.3]heptan-6-yl)amino)-N-(2-cyclopropyl-1-methyl-1H-imidazol-4-yl)-6-(methylamino)nicotinamide]",
> 0.1,"CC(=O)c1c(C)c2cnc(Nc3ccc(N4CCN(C(C)C(=O)NC5CC(Nc6nc(NC(C)C)ccc6C(=O)Nc6cn(C)c(C7CC7)n6)C5)CC4)cn3)nc2n(C2CCCC2)c1=O (stereo not drawn) [CPD-327, 2-((3-(2-(4-(6-((6-acetyl-8-cyclopentyl-5-methyl-7-oxo-7,8-dihydropyrido[2,3-d]pyrimidin-2-yl)amino)pyridin-3-yl)piperazin-1-yl)propanamido)cyclobutyl)amino)-N-(2-cyclopropyl-1-methyl-1H-imidazol-4-yl)-6-(isopropylamino)nicotinamide]",
> 0.1,"CNc1ccc(C(=O)Nc2cn(C)c(C(C)O)n2)c(NC2CC3(CC(NC(=O)CN4CCN(c5ccc(Nc6ncc7c(C)c(C(C)=O)c(=O)n(C8CCCC8)c7n6)nc5)CC4)C3)C2)n1 (stereo not drawn) [CPD-330, 2-((6-(2-(4-(6-((6-acetyl-8-cyclopentyl-5-methyl-7-oxo-7,8-dihydropyrido[2,3-d]pyrimidin-2-yl)amino)pyridin-3-yl)piperazin-1-yl)acetamido)spiro[3.3]heptan-2-yl)amino)-N-(2-(1-hydroxyethyl)-1-methyl-1H-imidazol-4-yl)-6-(methylamino)nicotinamide]",
0.05 to 0.1,"[2H]C([2H])([2H])Nc1ccc(C(=O)Nc2cn(C)c(C3CC3)n2)c(NC2CC3(C2)CN(C(=O)CC(C)N2CCN(c4ccc(Nc5ncc6c(C)c(C(C)=O)c(=O)n(C7CCCC7)c6n5)nc4)CC2)C3)n1 (stereo not drawn) [CPD-339, 2-((2-(3-(4-(6-((6-acetyl-8-cyclopentyl-5-methyl-7-oxo-7,8-dihydropyrido[2,3-d]pyrimidin-2-yl)amino)pyridin-3-yl)piperazin-1-yl)butanoyl)-2-azaspiro[3.3]heptan-6-yl)amino)-N-(2-cyclopropyl-1-methyl-1H-imidazol-4-yl)-6-((methyl-d3)amino)nicotinamide]",
> 0.1,"CNc1ccc(C(=O)Nc2cn(C)c(C(C)(C)O)n2)c(NC2CC3(CC(NC(=O)CN4CCN(c5ccc(Nc6ncc7c(C)c(C(C)=O)c(=O)n(C8CCCC8)c7n6)nc5)CC4)C3)C2)n1 (stereo not drawn) [CPD-340, 2-((6-(2-(4-(6-((6-acetyl-8-cyclopentyl-5-methyl-7-oxo-7,8-dihydropyrido[2,3-d]pyrimidin-2-yl)amino)pyridin-3-yl)piperazin-1-yl)acetamido)spiro[3.3]heptan-2-yl)amino)-N-(2-(2-hydroxypropan-2-yl)-1-methyl-1H-imidazol-4-yl)-6-(methylamino)nicotinamide]",
